Laboratory results taken from patent US20160158317A1, “Antimicrobial Peptide Variants and Polynucleotides Encoding Same” (Adenium Biotech A/S, priority 2010, published 2016).
Where “and” joins values, the source holds several entries; their conditions need not be identical. Identical values can stand only once. Marks after values point to notes of the source that are not given here.

System: Escherichia coli AID#172
Experiment: Peritonitis/sepsis model in neutropenic NMRI mice, effect over time of 7.5 mg/kg (Example 3)
Type: in vivo
Set-up: key to Score T = 0 hour / Score T = 5 hours / Score T = 2 hours: Score 0: Healthy.; Score 1: Minor clinical signs of infection and inflammation e.g. observations of minor signs of distress or changed activity.; Score 2: Clear signs of infection like, social withdrawal, lack of curiosity, changed body position, piloerection, or changes in pattern of movement.; Score 3: Severe signs of infection like stiff movements, lack of curiosity, changed body position, piloerection, pain, or changes in pattern of movement.; Score 4: Severe pain and the mouse was sacrificed immediately to minimize the suffering of the animal.; Score 5: The mouse was dead
Details: for CFU levels compared to vehicle: peritoneal fluid at 2 and 5 hours, blood at 5 hours, p<0.01; for difference in CFU levels compared to vehicle treatment, blood / difference in CFU levels compared to vehicle treatment, peritoneum: single i.v. dose (NZ17074 7.5 mg/kg, Meropenem 40 mg/kg); for Score T = 0 hour: score at start of treatment; for log10 CFU Mean Blood / log10 CFU mean PF: group mean; for log10 CFU mean PF / log10 CFU PF: peritoneal fluid
Experimental: The purpose of this study was to investigate the in vivo efficacy of NZ17074 following intravenous (i.v.) administration of a single dose of 7.5 mg/kg. The effect was tested against Escherichia coli AID#172 in the peritonitis model in neutropenic NMRI mice to avoid the use of mucin as normally applied in the murine peritonitis model. The mice were rendered neutropenic by cyclophosphamide injections. Treatment with 40 mg/kg meropenem was included as a positive control group and treatment with vehicle was included as a negative control group. The colony counts in peritoneal fluid and blood were determined at 2 and 5 hours after treatment.
• 30 outbred, NMRI female mice, 28-32 grams (Harlan Scandinavia) • Escherichia coli AID#172 from Statens Serum Institute, Copenhagen, Denmark. Clinical isolate from a human wound from 2003. Multiresistant (Ampicillin, Ceftazidime, Aztreonam, Gentamicin, Ciprofloxacin) • NZ17074 in Ringer Acetate pH 6, 1.2 ml 0.75 mg/ml. […] Lot no. 09466C Date of expiration: 08-2013 • APODAN®(A-Pharma, 1 g cyclophosphamide) Batch nr. 928491 • Date of expiration: May 2012 • Water, sterile • 0.9% saline, sterile • 5% Horse Blood Agar plates • Lactose bromthymol blue agar plates
The mice were rendered neutropenic by injecting 0.5 ml cyclophosphamide solution intraperitoneally 4 days (200 mg/kg) and 1 day (100 mg/kg) prior to inoculation.
Fresh overnight E. coli AID#172 colonies from a 5% Horse Blood Agar plate were suspended and diluted in sterile saline to approximately 2×10^6CFU/ml.
One hour before start of treatment (time −1 hour) mice were inoculated intraperitoneally with 0.5 ml of the E. coli suspension in the lateral lower quadrant of the abdomen.
The mice were clinically scored for signs of infection at the time of each sampling. • Score 0: Healthy. • Score 1: Minor clinical signs of infection and inflammation e.g. observations of minor signs of distress or changed activity. • Score 2: Clear signs of infection like, social withdrawal, lack of curiosity, changed body position, piloerection, or changes in pattern of movement. • Score 3: Severe signs of infection like stiff movements, lack of curiosity, forced ventilation, changed body position, piloerection, pain, or changes in pattern o movement. • Score 4: Severe pain and the mouse was sacrificed immediately to minimize the suffering of the animal. • Score 5: The mouse was dead.
The mice were treated i.v. in the lateral tail vein over approximately 30 seconds with a single dose of NZ17074, meropenem or vehicle at time 0 hour (see Table 1). The dosing was based on a mean weight of 30 g. Mice that weighed 28-32 g received 0.30 ml solution. Mice that weighed 27-28 g received 0.25 ml solution and mice that weighed 32.1-36 g received 0.35 ml solution. Mouse 17 accidently received 0.35 ml although it weighed 29.5 g.
Colony counts were determined from blood and peritoneal fluid at 0, 2 and 5 hours after treatment according to Table 1.
The mice were anesthetized with O2+CO2 and blood was collected by axilliary cut down. The mice were sacrificed by cervical dislocation and a total of 2 ml sterile saline was injected i.p. and the abdomen gently massaged before it was opened and fluid sampled with a pipette. Each sample was 10 fold diluted in saline and 20-microliter spots were applied on blood agar plates. All agar plates were incubated 18-22 hours at 35° C. in ambient air.
The CFU numbers are log10 transformed before performing calculations to obtain a normal distribution.

[1] = Meropenem 40 mg/kg single dose, sampling T = 2, individual mice
[2] = Meropenem 40 mg/kg single dose, sampling T = 5, p < 0.01 vs vehicle
[3] = Meropenem 40 mg/kg single dose, sampling T = 5, individual mice
[4] = Meropenem 40 mg/kg single dose, individual mice

SMILES: C[C@@H](O)[C@H]1C(=O)N2C(C(=O)O)=C(S[C@@H]3CN[C@H](C(=O)N(C)C)C3)[C@H](C)[C@H]12 [meropenem]
- CFU levels compared to vehicle, blood (40 mg/kg i.v., 2 hours after treatment): lack of significance
- CFU levels compared to vehicle (40 mg/kg i.v.): significantly (p<0.01) reduced CFU levels
- CFU levels compared to vehicle (40 mg/kg i.v., listed as Meropenem): significant reduction
- difference in CFU levels compared to vehicle treatment, blood (2 hours): blood −0.82 log log cfu/ml
- difference in CFU levels compared to vehicle treatment, peritoneum (2 hours): 2 hours: peritoneum −1.51 log cfu/ml
- difference in CFU levels compared to vehicle treatment, blood (5 hours): blood −1.64 log log cfu/ml
- difference in CFU levels compared to vehicle treatment, peritoneum (5 hours): 5 hours: peritoneum −1.51 log cfu/ml
- Score T = 0 hour (Meropenem 40 mg/kg single dose, group sampled T = 2, individual mice): 0
- Score T = 0 hour (Meropenem 40 mg/kg single dose, group sampled T = 5, individual mice): 0
- log10 CFU Mean Blood (Meropenem 40 mg/kg single dose, sampling T = 2, not significant vs vehicle): 3.76 log10 CFU
- log10 CFU Blood [1]: 3.60 log10 CFU and 3.57 log10 CFU and 4.11 log10 CFU
- log10 CFU Mean Blood [2]: 3.10** log10 CFU
- log10 CFU Blood [3]: 3.20 log10 CFU and 2.85 log10 CFU and 3.26 log10 CFU
- Score T = 2 hours [4]: 1
- Score T = 5 hours [4]: 0
- log10 CFU mean PF (Meropenem 40 mg/kg single dose, sampling T = 2, p < 0.01 vs vehicle): 3.92** log10 CFU
- log10 CFU PF [1]: 4.12 log10 CFU and 3.40 log10 CFU and 4.24 log10 CFU
- log10 CFU mean PF [2]: 4.21** log10 CFU
- log10 CFU PF [3]: 4.38 log10 CFU and 4.00 log10 CFU and 4.26 log10 CFU
